Measured values from US4032654A, “Water-soluble, liquid concentrates of S-methyl-[(methyl-carbamoyl)oxy]-thioacetimidate and methyl N', N'-dimethyl-N-[(methyl-carbamoyl)oxy]-1-thiooxamimidate” (priority 1975, dated 1977).
Like-named read-outs stand apart in the source and are kept apart here.

Conditions: 30% cyclohexanone, 30% cyclohexanol, 30% water, 10% methanol, -6° C.; for Solubility, both actives in solvent: Methomyl: with oxamyl
Procedure: Methomyl and Oxamyl Solubility In Cyclohexanone, Cyclohexanol, CH3 OH and H2 O at -6° C.
Methomyl and oxamyl were dissolved separately and in weight ratios of 1:1, 2:1 and 1:2.5 methomyl to oxamyl in a solvent system consisting of 30 wt. % cyclohexanone, 30 wt. % cyclohexanol, 30 wt. % water and 10 wt. % methanol. These solutions were equilibrated at -6° C. and seeded with methomyl and/or oxamyl crystals. The samples of liquid and solids remained at -6° C. until solid-liquid equilibrium was assured. A liquid sample was removed from each at -6° C. and assayed for methomyl and/or oxamyl. Solids were also isolated at -6° C., washed, dried and dissolved in CH3 OH to yield a 10% solution which was analyzed by TLC to ensure both methomyl and oxamyl crystals were present in the solids of the combination sample. All such solids contained both oxamyl and methomyl.
SOLUBILITY OF METHOMYL AND OXAMYL (2:1, 1:1 and 1:2.5 Wt.
RATIOS) IN CYCLOHEXANONE, CYCLOHEXANOL, CH3 OH AND H2 O

With `CNC(=O)ON=C(C)SC` [Methomyl] the “Solubility, Methomyl alone in solvent” value (alone) was 24.5 gms/100 gms solvent, the “Solubility, both actives in solvent: Methomyl” value (“Solubility, both actives” for short) (ratio 1:1) was 39.6 gms/100 gms solvent and the “Solubility, both actives” value (ratio 1:2.5) was 40.2 gms/100 gms solvent. The “Solubility, both actives” value (ratio 2:1) was 42.7 gms/100 gms solvent.
